The star is where a group is joined. Cbz = O=C(OCc1ccccc1)*; CH2F = FC*
Columns and labels:
BLIN-4E cells = assay: Apoptosis by Annexin V staining and flow cytometry, BLIN-4E; type: cell-based, human; conditions: 50 μM, 18 hours
Method: (§1) FIG. 4 is a pair of graphs showing the effect of […] on various cell lines, as determined by Annexin V staining and flow cytometry. The cells included the B-cell precursor ALL cell lines […], and NALM-6, the RAMOS, RAJI, and DAUDI Burkitt lymphoma cell lines, the CCRF-CEM, JURKAT, and H9 T lymphoma cell lines, the K-562 erythroleukemia cell line, and resting or activated (i.e., CD3/CD28 cross-linked) normal human T cells. […] Flow cytometry. Quantitation of apoptotic events was conducted using a FACS Calibur (BD Immunocytometry Systems). All analyses were conducted on cells with lymphoid light scatter characteristics (i.e., low to medium forward scatter and low 90° side scatter). iii. Annexin V. […] Cells were stained according to the manufacturers recommendations.

BLIN-3 cells = assay: Loss of mitochondrial transmembrane potential (TMRE) and YO-PRO permeability in BLIN-3; type: cell-based, human; conditions: BLIN-3, FIG. 2
Method: Numbers in the histograms indicate the percentage of PI^- cells that underwent a loss of Δψm. Numbers in the contour plots indicate the percentage of Annexin V^+/PI^- cells. […] Numbers in the contour plots indicate the percentage of YO^- PRO^+/PI^- cells. Numbers in the histograms indicate the percentage of PI^- cells that underwent a loss of Δψm. Flow cytometry. Quantitation of apoptotic events was conducted using a FACS Calibur (BD Immunocytometry Systems). All analyses were conducted on cells with lymphoid light scatter characteristics (i.e., low to medium forward scatter and low 90° side scatter). i. Mitochondrial transmembrane potential (Δψm). The cationic lipophilic fluorescent dye tetramethylrhodamine, ethyl ester, perchlorate (TMRE) was purchased from Molecular Probes, Inc. (Eugene, Oreg.). TMRE has a high degree of membrane permeability and accumulates into mitochondria in accord with the Nernstian equation (Farkas Biophys J. 1989;56:1053-1069). Cells were washed once and re-suspended to 0.5-1.0×10^6/ml in X-VIVO 10. TMRE was added to a final concentration of 50 nM and the cells were incubated in the dark at 37° C. for 15 minutes. […] ii. YO-[…]. The green fluorescent DNA intercalant dye YO-PRO-1 (Idziorek J Immunol Methods. 1995;185:249-258) was purchased from Molecular Probes as the Vybrant Apoptosis Assay Kit #4. […]

BLIN-1 cells = assay: Apoptosis by Annexin V staining and flow cytometry, BLIN-1; type: cell-based, human; conditions: BLIN-1, 50 μM, 18 hours
Method: Flow cytometry. Quantitation of apoptotic events was conducted using a FACS Calibur (BD Immunocytometry Systems). All analyses were conducted on cells with lymphoid light scatter characteristics (i.e., low to medium forward scatter and low 90° side scatter).
iii. Annexin V. FITC-labeled Annexin V (BD Pharmingen, San Diego, Calif.) was used to detect external phosphatidylserine residues appearing on the external surface of early apoptotic cells (Koopman Blood. 1994;84:1415-1420). Cells were stained according to the manufacturers recommendations.
General experimental strategy. BLIN cell lines were removed from fibroblast monolayers, washed once and resuspended to 7.5×10^5/ml in X-VIVO 10. Two hundred μL of resuspended cells were added to 96-well flat-bottom microtiter plates (ISC Bioexpress, Kaysville, Vt.), followed by 0.5-1.0 μL of caspase inhibitors in DMSO. An identical volume of DMSO alone was added to separate wells as a vehicle control. This final DMSO concentration of 0.25-0.5% vol/vol had no adverse affect on any of the BLIN cell lines. At the indicated times the entire content of individual wells was harvested and stained in the fluorescent protocols described above.
The inventors carried out experiments to test the influence of specific amino acid substitutions on the proapoptotic activity Z-LEHD-fmk. […]

[1] = system: DAUDI Burkitt lymphoma cell line; assay: Apoptosis by Annexin V staining and flow cytometry, DAUDI; type: cell-based; conditions: 50 μM, 18 hours
Method: as §1

leukemia/lymphoma cells = assay: Pro-apoptotic activity of caspase inhibitor sequences (Table 2); type: cell-based; parameters: key: “−” is no activity; ++++ is maximum activity
From the text: Caspases are constitutively express in cells, and are usually in their pro-form. In response to an incident, such as irradiation or chemotherapy, the pro-form of the caspase is converted into the activated state. Certain compounds are known that can inhibit caspases. For example, the pan-caspase (PCi) VAD can block all caspases. […] For example, C2i inhibits caspase-2. This particular inhibitor is very dose dependent.

[2] = system: PARP (caspase-3/caspase-7 substrate); assay: Western blotting of PARP cleavage in BLIN-3 and BLIN-4L; type: cell-based, human; conditions: overnight incubation of BLIN-3 and BLIN-4L cells, 50 μM
Method: Western blotting. This method was conducted essentially as previously described.^20 The antibodies used were: rabbit anti-caspase-2 (catalog # sc-625, Santa Cruz Biotechnology Inc., Santa Cruz, Calif.), rabbit anti-caspase-3 (catalog # 9661, Upstate Cell Signaling Solutions, Waltham, Mass.), rabbit anti-caspase-6 (catalog # 9761, Upstate), rabbit anti-caspase-9 (catalog # 9502, Upstate), mouse anti-PARP (catalog # 556494, Pharmingen), and rabbit anti-Bid (catalog # AF846, R&D Systems). The antibodies to caspase-2 and caspase-9 were generated to the procaspase isoforms, whereas the antibodies to caspase-3 and caspase-6 were generated to cleavage products.
As expected, inclusion of 50 μM PCi had no effect. The degree of PARP cleavage in the presence of C9i (greater in BLIN-3 than BLIN-4L) correlated with the percentage of Annexin V+ cells (FIG. 3).

Z-LEHD-fmk (Cbz-LEHD-CH2F; SMILES CC(C)C[C@H](NC(=O)OCc1ccccc1)C(=O)N[C@@H](CCC(=O)O)C(=O)N[C@@H](Cc1c[nH]cn1)C(=O)N[C@@H](CC(=O)O)C(=O)CF) [C9i]
sensitivity (fold-increase in Annexin V+ cells vs DMSO) (BLIN-4E cells): sensitive | enhancement of apoptosis (YO-PRO+/PI− cells, reduced TMRE staining) versus concentration (BLIN-3 cells): dose-dependent | sensitivity (fold-increase in Annexin V+ cells vs DMSO) (BLIN-1 cells): sensitive | sensitivity (fold-increase in Annexin V+ cells vs DMSO) [1]: insensitive | Pro-apoptotic Activity (after 24 hours) (leukemia/lymphoma cells): ++++ | cleavage of the caspase-3/caspase-7 substrate PARP [2]: led to cleavage
